From ChEMBL document CHEMBL4825757, “Optimization of 4,6-Disubstituted Pyrido[3,2-d]pyrimidines as Dual MNK/PIM Inhibitors to Inhibit Leukemia Cell Growth” (J Med Chem, 2021)
The source made the active and inactive calls. The rule behind the calls is not given here.

Assays:
[1] = molecular target: MAP kinase-interacting serine/threonine-protein kinase 1/2 (Homo sapiens) (UniProt Q9HBH9+Q9BUB5); experiment: Inhibition of MNK1/MNK2 in human MOLM-13 cells assessed as reduction in eIF4E phosphorylation at 1 to 2 uM incubated for 12 hrs by western blot analysis; type: cell-based; conditions: dose 1-2 µM
[2] = molecular target: Epidermal growth factor receptor (Homo sapiens, UniProt P00533); experiment: Inhibition of recombinant human EGFR (696 to end residues) using poly(Glu, Tyr) 4:1 as substrate after 40 mins in presence of [gamma-33ATP] by radiometric scintillation counting analysis
[3] = Drug concentration in Sprague Dawley rat at 2 mg/kg, iv measured after 24 hrs; type: ADME, organism-based; conditions: in vivo, read-out: Ct
MOLM-13 [4] = experiment: Antitumor activity against human MOLM-13 cells xenografted in NOD/SCID mouse assessed as tumor growth inhibition at 10 mg/kg, ip daily for 2 weeks; type: functional; conditions: MOLM-13, ip, 336 h, read-out: TGI
[5] = Toxicity in NOD/SCID mouse xenografted with human MOLM-13 cells assessed as decrease in body weight at 5 to 10 mg/kg, ip daily for 2 weeks; type: organism-based; conditions: in vivo, 336 h, dose 5-10 mg/kg
MOLM-13 [6] = experiment: Induction of cell cycle arrest in human MOLM-13 cells assessed as sub-G1 phase at 1 uM incubated for 12 hr by propidium iodide based flow cytometry analysis (Rvb= 4.78%); type: functional
K562 = experiment: Antiproliferative activity against human K562 cells assessed as reduction of cell viability incubated for 72 hrs by trypan blue staining based cell counting analysis; type: functional
[7] = Toxicity in NOD/SCID mouse xenografted with human MOLM-13 cells assessed as abnormal changes in liver at 5 to 10 mg/kg, ip daily for 2 weeks by hematoxylin-eosin staining based histological analysis; type: organism-based; conditions: in vivo, 336 h, dose 5-10 mg/kg
[8] = Tmax in Sprague Dawley rat at 10 mg/kg, po measured after 24 hrs; type: ADME, organism-based; conditions: in vivo
[9] = Metabolic stability in rat liver microsomes assessed as half life preincubated for 10 mins followed by NADPH addition and further incubated upto 60 mins by LC-MS/MS analysis; type: ADME, Microsome; conditions: time <=70 min
[10] = molecular target: T1, MAP kinase-interacting serine/threonine-protein kinase 2 (Homo sapiens, UniProt Q9HBH9); experiment: Inhibition of wild type human partial length MKN2 (G63 to S388 residues) expressed in mammalian expression system at 1 uM by Kinomescan method relative to control
[11] = Intrinsic clearance in human liver microsomes preincubated for 10 mins followed by NADPH addition and further incubated upto 60 mins by LC-MS/MS analysis; type: ADME, Microsome; conditions: time <=70 min, read-out: CLH
MOLM-13 [12] = experiment: Induction of apoptosis in human MOLM-13 cells assessed as necrotic cells at 1 uM incubated for 12 hrs by annexin-V and propidium iodide staining based flow cytometry analysis (reference value: 0.06%); type: functional
[13] = molecular target: T2, Receptor tyrosine-protein kinase erbB-2 (Homo sapiens, UniProt P04626); experiment: Inhibition of ERBB2 (unknown origin) by mobility shift assay
[14] = molecular target: T3, Serine/threonine-protein kinase B-raf (Homo sapiens, UniProt P15056); experiment: Inhibition of wild-type human partial length BRAF (S429 to E741 residues) expressed in mammalian expression system at 1 uM by Kinomescan method relative to control
[15] = AUC (0 to t) in Sprague Dawley rat at 2 mg/kg, iv measured after 24 hrs; type: ADME, organism-based; set-up: route intravenous, time 24 hrs, dose 2 mg/kg; conditions: in vivo
[16] = Tmax in Sprague Dawley rat at 2 mg/kg, iv measured after 24 hrs; type: ADME, organism-based; conditions: in vivo
[17] = AUC (0 to t) in Sprague Dawley rat at 10 mg/kg, ip measured after 24 hrs; type: ADME, organism-based; set-up: route intraperitoneal, time 24 hrs, dose 10 mg/kg; conditions: in vivo
[18] = Toxicity in NOD/SCID mouse xenografted with human MOLM-13 cells assessed as abnormal changes in lung at 5 to 10 mg/kg, ip daily for 2 weeks by hematoxylin-eosin staining based histological analysis; type: organism-based; conditions: in vivo, 336 h, dose 5-10 mg/kg
MOLM-13 [19] = experiment: Induction of cell cycle arrest in human MOLM-13 cells assessed as sub-G1 phase at 2 uM incubated for 12 hr by propidium iodide based flow cytometry analysis (Rvb= 4.78%); type: functional
[20] = Cmax in Sprague Dawley rat at 2 mg/kg, iv measured after 24 hrs; type: ADME, organism-based; set-up: route intravenous, time 24 hrs, dose 2 mg/kg; conditions: in vivo
[21] = molecular target: MAP kinase-interacting serine/threonine-protein kinase 1 (Homo sapiens, UniProt Q9BUB5); experiment: Inhibition of wild type human full length MKN1 (M1 to L424) expressed in mammalian expression system by HTRF method
MOLM-13 [22] = experiment: Induction of apoptosis in human MOLM-13 cells assessed as necrotic cells at 2 uM incubated for 12 hrs by annexin-V and propidium iodide staining based flow cytometry analysis (reference value: 0.06%); type: functional
MOLM-13 [23] = experiment: Induction of cell cycle arrest in human MOLM-13 cells assessed as G1 phase at 2 uM incubated for 12 hr by propidium iodide based flow cytometry analysis (Rvb= 51.29%); type: functional
MOLM-13 [24] = experiment: Antitumor activity against human MOLM-13 cells xenografted in NOD/SCID mouse assessed as tumor growth inhibition at 5 mg/kg, ip daily for 2 weeks; type: functional; conditions: MOLM-13, ip, 336 h, read-out: TGI
[25] = Oral bioavailability in Sprague Dawley rat at 10 mg/kg measured after 24 hrs; type: ADME, organism-based; conditions: in vivo
[26] = molecular target: T4, Serine/threonine-protein kinase PIM (Homo sapiens) (UniProt P11309+Q9P1W9+Q86V86); experiment: Inhibition of PIM in human K562 cells assessed as reduction in phosphorylated 4EBP1 at 1 to 2 uM incubated for 24 hrs by western blot analysis; type: cell-based; conditions: dose 1-2 µM
[27] = molecular target: T3, Serine/threonine-protein kinase B-raf; experiment: Inhibition of recombinant human B-Raf (416 to end residues) using myelin as substrate incubated for 40 mins in presence of [gamma-33P]-ATP by radiometric scintillation counting analysis
[28] = molecular target: T1, MAP kinase-interacting serine/threonine-protein kinase 2; experiment: Inhibition of wild type human partial length MKN2 (G63 to S388 residues) expressed in mammalian expression system by HTRF method
MOLM-13 [29] = experiment: Downregulation of mcl-1 levels in human MOLM-13 cells at 1 to 2 uM incubated for 12 hrs by western blot analysis; type: functional, cell-based; conditions: dose 1-2 µM
[30] = Cmax in Sprague Dawley rat at 10 mg/kg, po measured after 24 hrs; type: ADME, organism-based; set-up: route oral, time 24 hrs, dose 10 mg/kg; conditions: in vivo
[31] = molecular target: T4, Serine/threonine-protein kinase PIM (Homo sapiens); experiment: Inhibition of PIM in human MOLM-13 cells assessed as reduction in phosphorylated 4EBP1 at 1 to 2 uM incubated for 12 hrs by western blot analysis; type: cell-based; conditions: dose 1-2 µM
[32] = molecular target: T2, Receptor tyrosine-protein kinase erbB-2; experiment: Inhibition of wild-type human partial length ERBB2 (K646 to V1225 residues) expressed in mammalian expression system at 1 uM by Kinomescan method relative to control
MOLM-13 [33] = experiment: Induction of apoptosis in human MOLM-13 cells assessed as late apoptotic cells at 1 uM incubated for 12 hrs by annexin-V and propidium iodide staining based flow cytometry analysis (reference value: 3.03%); type: functional
[34] = Half life in Sprague Dawley rat at 10 mg/kg, ip measured after 24 hrs; type: ADME, organism-based; conditions: in vivo
[35] = Intrinsic clearance in rat liver microsomes preincubated for 10 mins followed by NADPH addition and further incubated upto 60 mins by LC-MS/MS analysis; type: ADME, Microsome; conditions: time <=70 min, read-out: CLH
[36] = AUC (0 to t) in Sprague Dawley rat at 10 mg/kg, po measured after 24 hrs; type: ADME, organism-based; set-up: route oral, dose 10 mg/kg, time 24 hrs; conditions: in vivo
[37] = Tmax in Sprague Dawley rat at 10 mg/kg, ip measured after 24 hrs; type: ADME, organism-based; conditions: in vivo

T4 sequence (P11309 whole entry, looked up): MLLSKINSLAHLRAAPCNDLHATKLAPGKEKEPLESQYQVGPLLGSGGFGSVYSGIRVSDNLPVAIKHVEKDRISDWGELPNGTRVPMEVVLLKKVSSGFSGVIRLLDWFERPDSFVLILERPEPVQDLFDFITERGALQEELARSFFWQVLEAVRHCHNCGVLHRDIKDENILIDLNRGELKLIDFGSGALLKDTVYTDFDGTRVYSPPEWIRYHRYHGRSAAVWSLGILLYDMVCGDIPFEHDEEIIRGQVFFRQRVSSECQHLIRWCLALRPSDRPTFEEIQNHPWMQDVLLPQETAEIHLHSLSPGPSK
T4 sequence (Q9P1W9 whole entry, looked up): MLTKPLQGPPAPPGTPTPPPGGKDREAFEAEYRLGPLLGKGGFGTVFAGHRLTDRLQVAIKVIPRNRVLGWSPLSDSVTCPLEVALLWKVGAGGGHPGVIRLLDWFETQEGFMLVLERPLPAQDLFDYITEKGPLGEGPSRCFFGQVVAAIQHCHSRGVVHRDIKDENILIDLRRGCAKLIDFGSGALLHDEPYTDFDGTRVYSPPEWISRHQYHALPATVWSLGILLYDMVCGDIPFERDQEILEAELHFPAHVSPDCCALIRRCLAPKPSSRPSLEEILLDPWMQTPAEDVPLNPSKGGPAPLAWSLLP
T3 sequence (P15056 whole entry, the tested form may be a part): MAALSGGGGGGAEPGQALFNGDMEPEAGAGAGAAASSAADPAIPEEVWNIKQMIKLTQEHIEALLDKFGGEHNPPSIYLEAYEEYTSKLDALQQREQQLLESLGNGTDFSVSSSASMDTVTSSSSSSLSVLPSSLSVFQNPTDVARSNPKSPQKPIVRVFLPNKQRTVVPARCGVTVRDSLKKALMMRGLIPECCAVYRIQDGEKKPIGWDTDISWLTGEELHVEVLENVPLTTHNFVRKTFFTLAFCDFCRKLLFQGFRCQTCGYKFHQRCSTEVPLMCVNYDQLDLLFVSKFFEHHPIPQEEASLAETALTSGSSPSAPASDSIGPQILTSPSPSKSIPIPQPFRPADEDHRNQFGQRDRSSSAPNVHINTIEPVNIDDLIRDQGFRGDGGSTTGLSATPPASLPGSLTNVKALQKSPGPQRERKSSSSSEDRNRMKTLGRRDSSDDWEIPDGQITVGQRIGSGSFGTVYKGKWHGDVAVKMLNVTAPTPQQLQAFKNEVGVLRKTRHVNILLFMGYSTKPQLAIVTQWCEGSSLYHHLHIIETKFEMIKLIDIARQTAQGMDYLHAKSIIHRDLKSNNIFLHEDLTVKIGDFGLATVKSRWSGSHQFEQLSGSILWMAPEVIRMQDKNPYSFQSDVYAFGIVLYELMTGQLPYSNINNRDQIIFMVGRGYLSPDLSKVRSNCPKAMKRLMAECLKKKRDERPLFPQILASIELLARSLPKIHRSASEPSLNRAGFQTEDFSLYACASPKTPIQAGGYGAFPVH
T2 sequence (P04626 whole entry, the tested form may be a part): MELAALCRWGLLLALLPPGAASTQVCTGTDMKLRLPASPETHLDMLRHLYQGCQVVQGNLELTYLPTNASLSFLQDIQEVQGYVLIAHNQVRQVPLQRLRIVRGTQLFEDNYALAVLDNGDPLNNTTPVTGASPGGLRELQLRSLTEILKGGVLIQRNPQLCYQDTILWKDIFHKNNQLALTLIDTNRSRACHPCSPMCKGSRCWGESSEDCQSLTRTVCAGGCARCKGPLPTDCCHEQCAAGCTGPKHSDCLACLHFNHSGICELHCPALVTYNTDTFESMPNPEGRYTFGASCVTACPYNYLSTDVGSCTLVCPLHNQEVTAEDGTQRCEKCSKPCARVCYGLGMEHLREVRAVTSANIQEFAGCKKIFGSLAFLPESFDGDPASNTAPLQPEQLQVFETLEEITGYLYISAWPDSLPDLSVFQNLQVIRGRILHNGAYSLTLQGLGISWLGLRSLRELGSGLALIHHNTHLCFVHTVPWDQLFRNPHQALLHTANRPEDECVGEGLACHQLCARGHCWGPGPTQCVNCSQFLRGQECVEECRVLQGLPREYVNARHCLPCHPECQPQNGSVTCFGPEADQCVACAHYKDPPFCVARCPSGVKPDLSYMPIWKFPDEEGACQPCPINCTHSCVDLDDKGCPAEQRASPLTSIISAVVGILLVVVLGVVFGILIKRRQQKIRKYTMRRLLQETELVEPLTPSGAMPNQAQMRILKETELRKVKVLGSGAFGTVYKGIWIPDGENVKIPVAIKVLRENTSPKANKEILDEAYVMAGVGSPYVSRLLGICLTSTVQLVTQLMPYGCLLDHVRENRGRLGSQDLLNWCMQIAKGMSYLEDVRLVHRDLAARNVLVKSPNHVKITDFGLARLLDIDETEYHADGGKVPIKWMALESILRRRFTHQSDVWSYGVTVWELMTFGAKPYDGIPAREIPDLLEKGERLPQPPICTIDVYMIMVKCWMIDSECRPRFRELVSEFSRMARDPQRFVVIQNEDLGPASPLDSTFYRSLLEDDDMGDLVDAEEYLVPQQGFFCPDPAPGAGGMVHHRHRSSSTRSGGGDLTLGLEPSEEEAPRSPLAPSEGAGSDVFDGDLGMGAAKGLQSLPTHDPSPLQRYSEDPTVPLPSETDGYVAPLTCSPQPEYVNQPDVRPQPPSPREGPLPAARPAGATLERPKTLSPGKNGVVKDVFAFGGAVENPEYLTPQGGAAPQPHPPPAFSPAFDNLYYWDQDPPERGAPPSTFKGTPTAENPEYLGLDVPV
Chain of MAP kinase-interacting serine/threonine-protein kinase 1 (Q9BUB5 whole entry): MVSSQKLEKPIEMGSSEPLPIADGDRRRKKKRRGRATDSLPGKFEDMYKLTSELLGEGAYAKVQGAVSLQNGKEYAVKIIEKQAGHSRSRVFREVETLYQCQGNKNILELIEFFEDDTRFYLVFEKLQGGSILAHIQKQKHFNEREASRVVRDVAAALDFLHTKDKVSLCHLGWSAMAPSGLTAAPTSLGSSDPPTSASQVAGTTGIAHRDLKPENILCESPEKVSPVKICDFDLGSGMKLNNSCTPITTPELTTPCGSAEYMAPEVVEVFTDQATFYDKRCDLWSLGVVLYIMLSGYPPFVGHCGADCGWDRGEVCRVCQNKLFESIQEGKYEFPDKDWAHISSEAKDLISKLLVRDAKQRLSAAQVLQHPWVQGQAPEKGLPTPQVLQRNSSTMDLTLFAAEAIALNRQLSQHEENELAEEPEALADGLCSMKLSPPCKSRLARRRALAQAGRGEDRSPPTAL
Chain of Epidermal growth factor receptor (P00533 whole entry): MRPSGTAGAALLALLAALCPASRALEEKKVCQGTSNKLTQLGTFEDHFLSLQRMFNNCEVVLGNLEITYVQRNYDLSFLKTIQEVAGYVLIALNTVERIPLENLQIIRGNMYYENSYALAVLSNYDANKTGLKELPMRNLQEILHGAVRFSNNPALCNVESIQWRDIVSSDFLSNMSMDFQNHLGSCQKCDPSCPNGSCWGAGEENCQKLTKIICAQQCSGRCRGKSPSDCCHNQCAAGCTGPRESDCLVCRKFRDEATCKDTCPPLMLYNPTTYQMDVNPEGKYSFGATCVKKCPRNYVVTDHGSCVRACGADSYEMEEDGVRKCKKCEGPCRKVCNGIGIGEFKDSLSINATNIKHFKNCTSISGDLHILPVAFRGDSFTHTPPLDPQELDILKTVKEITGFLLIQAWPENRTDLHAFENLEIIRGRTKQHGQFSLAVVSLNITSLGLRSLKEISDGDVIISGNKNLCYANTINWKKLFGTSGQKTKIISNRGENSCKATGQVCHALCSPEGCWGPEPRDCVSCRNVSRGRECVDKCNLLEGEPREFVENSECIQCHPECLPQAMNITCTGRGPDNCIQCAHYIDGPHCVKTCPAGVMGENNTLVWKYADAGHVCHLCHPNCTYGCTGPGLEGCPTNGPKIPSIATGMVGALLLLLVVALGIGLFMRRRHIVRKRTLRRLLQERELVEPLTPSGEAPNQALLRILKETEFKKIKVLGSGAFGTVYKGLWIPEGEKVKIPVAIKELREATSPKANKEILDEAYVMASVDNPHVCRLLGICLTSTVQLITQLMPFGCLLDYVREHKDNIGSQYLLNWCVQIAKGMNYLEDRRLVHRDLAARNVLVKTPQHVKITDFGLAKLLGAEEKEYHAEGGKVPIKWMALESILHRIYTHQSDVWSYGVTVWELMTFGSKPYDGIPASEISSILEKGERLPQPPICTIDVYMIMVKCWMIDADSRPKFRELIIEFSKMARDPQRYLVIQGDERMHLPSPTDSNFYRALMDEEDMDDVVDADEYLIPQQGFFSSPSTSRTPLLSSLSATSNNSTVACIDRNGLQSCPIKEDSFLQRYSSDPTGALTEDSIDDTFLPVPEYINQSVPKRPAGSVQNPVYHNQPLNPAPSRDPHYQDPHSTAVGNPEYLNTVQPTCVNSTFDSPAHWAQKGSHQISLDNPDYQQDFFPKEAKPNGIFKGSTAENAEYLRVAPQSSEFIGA

inhibition [1]: Active
IC50 [2]: 1970 nM
concentration at 24 h [3]: 765 ng/mL
GI50 (K562): 2190 nM
Tmax [8]: 480 min
half-life [9]: 36.1 min
inhibition [10]: 100%
CLint scaled [11]: 8.53 mL/min/kg
IC50 [13]: 7490 nM
inhibition [14]: 87%
AUC(0-t) at 24 h [15]: 1610 ng·h/mL
Tmax [16]: 4.98 min
AUC(0-t) at 24 h [17]: 1660 ng·h/mL
Cmax [20]: 652 ng/mL
IC50 [21]: 1 nM
bioavailability [25]: 35.5%
inhibition [26]: Dose-Dependent Effect
IC50 [27]: 2220 nM
IC50 [28]: 7 nM
Cmax [30]: 224 ng/mL
inhibition [31]: Active
inhibition [32]: 60%
half-life [34]: 264 min
CLint scaled [35]: 68.8 mL/min/kg
AUC(0-t) at 24 h [36]: 2850 ng·h/mL
Tmax [37]: 40.2 min
SMILES: CC(C)Oc1cc(F)ccc1Nc1ncnc2ccc(-c3ccc(C(=O)N4CCNCC4)cc3)nc12
inhibition in vivo at 10 mg/kg (MOLM-13 [4]): 57.6%
Activity [5]: Non-Toxic
Activity (MOLM-13 [6]): 11.81%
Activity [7]: Non-Toxic
Activity (MOLM-13 [12]): 0.11%
Activity [18]: Non-Toxic
Activity (MOLM-13 [19]): 32.41%
Activity (MOLM-13 [22]): 0.73%
Activity (MOLM-13 [23]): 44.38%
inhibition in vivo at 5 mg/kg (MOLM-13 [24]): 41.2%
Activity (MOLM-13 [29]): Active
Activity (MOLM-13 [33]): 2.97%
